# Read-outs that look alike come from different tables or passages of the source. *1 amine or outer side, *2 acyl side, *3 side chain or, on linkers, in order; H or OH if unused. Where a SMILES comes first, the peptide text is derived from it. Bridges are numbered along the chain shown (N, C = ends). [ ]: non-standard residue; d: D form. The star is where a group is joined. ξ: configuration not given here. Phe(3,5-F2) = N[C@@H](Cc1cc(F)cc(F)c1)C(=O)O; NH(1-Me-indolin-5-yl) = CN1CCc2cc(N*)ccc21; NH(4-OCF3-phenyl) = FC(F)(F)Oc1ccc(N*)cc1; Morpholine(3S-CO) = O=C(O)[C@@H]1COCCN1; Pro(4S-Me) = C[C@@H]1CN[C@H](C(=O)O)C1; NH(4-Cl-2-F-phenyl) = Fc1cc(Cl)ccc1N*; Pro(4R-Me) = C[C@H]1CN[C@H](C(=O)O)C1; Hyp = O=C(O)[C@@H]1C[C@@H](O)CN1; NMeT = CN[C@H](C(=O)O)[C@@H](C)O; Heptenoyl(2E) = CCCC/C=C/C(=O)*; NH(4-Me-phenyl) = Cc1ccc(N*)cc1; aThr = C[C@H](O)[C@H](N)C(=O)O; Pip = O=C(O)[C@@H]1CCCCN1; NMeA = CN[C@@H](C)C(=O)O; X1 = N#Cc1cc(N*)ccc1F; CO = O=C([*:1])[*:2]; ξP = O=C(O)C1CCCN1
# Columns and labels:
# Format in all cases: cell-based
# [1] = Cytotoxicity assay (CellTiter-Glo cell viability, 72 hours); conditions: African green monkey
# Summary of the method: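 Viability measured by CellTiter-Glo luminescence after 72-hour compound exposure (serial dilutions, DMSO control) of Vero monolayers seeded at 5000 cells/well in 10% FBS DMEM. IC50 values are the range of two biologically independent experiments, each run in duplicate.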
# [2] = tested on: Bacillus subtilis, ATCC 23857; assay: Minimal inhibitory concentration assay (microbroth dilution)
# Summary of the method: (§1)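 MIC is the lowest concentration stopping visible growth after overnight aerobic culture at 37 °C, per CLSI microbroth dilution (about 10^5 cfu/mL; two-fold series, top final 200 μM). ClpP-inactivated S. aureus USA 300 tested alongside parent strain to probe ClpP-mediated killing.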
# [3] = tested on: Staphylococcus aureus, ATCC 29213; assay: as above; conditions: ATCC29213, read-out: Minimal Inhibitory Concentrations S. aureus ATCC 29213
# Summary of the method: as §1
# [4] = tested on: Staphylococcus aureus, NRS70; assay: as above
# Summary of the method: as §1
# [5] = tested on: Streptococcus pyogenes, ATCC 700294; assay: as above
# Summary of the method: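 Plates with two-fold compound dilution series in broth were incubated overnight, aerobically, at 37° C, following CLSI microdilution guidance.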
# [6] = Bacillus subtilis, ATCC23857; read-out: Minimal Inhibitory Concentrations B. subtilis ATCC 23857
# [7] = Staphylococcus aureus, NRS70; read-out: Minimal Inhibitory Concentrations S. aureus NRS70
# [8] = Streptococcus pyogenes, ATCC700294; read-out: Minimal Inhibitory Concentrations S. pyogenes ATCC 700294
# [9] = Vero cells, 72 hours, growth inhibition, read-out: Cytotoxicity IC50
# [10] = Bacillus subtilis, ATCC23857, read-out: Minimal Inhibitory Concentrations B. subtilis ATCC 23857
# [11] = Staphylococcus aureus, NRS70, read-out: Minimal Inhibitory Concentrations S. aureus NRS70
# [12] = Streptococcus pyogenes, ATCC700294, read-out: Minimal Inhibitory Concentrations S. pyogenes ATCC 700294
SMILES,IC50 at 72 h [1],"MIC [2, 6]",MIC [3],"MIC [4, 7]","MIC [5, 8]","IC50 at 72 h [1, 9]","MIC [2, 10]","MIC [4, 11]","MIC [5, 12]"
"C[C@H]1C[C@H]2C(=O)O[C@@H](C)[C@H](NC(=O)[C@H](Cc3cc(F)cc(F)c3)NC(=O)Nc3ccc(OC(F)(F)F)cc3)C(=O)N3CCC[C@H]3C(=O)N(C)[C@@H]([C@@H](C)O)C(=O)N[C@@H](C)C(=O)N2C1 [Compound 36, (S)-3-(3,5-difluorophenyl)-N-((2S,6S,9S,11aS,17S,18S,20aS)-9-((R)-1-hydroxyethyl)-2,6,10,18-tetramethyl-5,8,11,16,20-pentaoxohexadecahydro-1H,5H,16H-dipyrrolo[2,1-c:2′,1′-l][1]oxa[4,7,10,13]tetraazacyclohexadecin-17-yl)-2-(3-(4-(trifluoromethoxy)phenyl)ureido)propanamide] ({NH(4-OCF3-phenyl)-CO}-[Phe(3,5-F2)][aThr]P[NMeT]A[Pro(4S-Me)]; ester 2-C)",25.4 ± 1.8 µM,0.1 µM,0.1 µM,0.05 µM,0.2 µM,,,,
"C[C@@H]1C[C@H]2C(=O)OC[C@H](NC(=O)[C@H](Cc3cc(F)cc(F)c3)NC(=O)Nc3ccc4c(c3)OCO4)C(=O)N3C[C@H](O)C[C@H]3C(=O)N3CCCCC3C(=O)N[C@@H](C)C(=O)N2C1 (stereo partly drawn) [Compound 325, (S)-2-(3-(benzo[d][1,3]dioxol-5-yl)ureido)-3-(3,5-difluorophenyl)-N-((2R,6S,8aR,14aS,16R,20S,23aS)-16-hydroxy-2,6-dimethyl-5,8,14,19,23-pentaoxooctadecahydro-1H,5H,14H,19H-pyrido[2,1-i]dipyrrolo[2,1-c:2′,1′-l][1]oxa[4,7,10,13]tetraazacyclo-hexadecin-20-yl)propanamide]",> 100 µM,2.5 µM,1.25 µM,1.25 µM,0.156 µM,,,,
"Cc1ccc(NC(=O)N[C@@H](Cc2cc(F)cc(F)c2)C(=O)N[C@@H]2C(=O)N3CCC[C@H]3C(=O)N(C)[C@@H]([C@@H](C)O)C(=O)N[C@@H](C)C(=O)N3C[C@@H](C)C[C@H]3C(=O)O[C@H]2C)cc1 [Compound 35, (S)-3-(3,5-difluorophenyl)-N-((2S,6S,9S,11aS,17S,18S,20aS)-9-((R)-1-hydroxyethyl)-2,6,10,18-tetramethyl-5,8,11,16,20-pentaoxohexadecahydro-1H,5H,16H-dipyrrolo[2,1-c:2′,1′-l][1]oxa[4,7,10,13]tetraazacyclohexadecin-17-yl)-2-(3-(p-tolyl)ureido)propanamide] ({NH(4-Me-phenyl)-CO}-[Phe(3,5-F2)][aThr]P[NMeT]A[Pro(4S-Me)]; ester 2-C)",,,0.2 µM,,,55.7 ± 3.6 µM,0.2 µM,0.1 µM,0.39 µM
"Cc1ccc(NC(=O)N[C@@H](Cc2cc(F)cc(F)c2)C(=O)N[C@H]2COC(=O)[C@@H]3C[C@@H](C)CN3C(=O)[C@H](C)NC(=O)[C@@H]3COCCN3C(=O)[C@@H]3C[C@@H](O)CN3C2=O)cc1 [Compound 317, (S)-3-(3,5-difluorophenyl)-N-((6aS,8R,12S,15aS,17R,21S,23aS)-8-hydroxy-17,21-dimethyl-6,11,15,20,23-pentaoxooctadecahydro-6H,11H,15H-[1,4]oxazino[3,4-i]dipyrrolo[2,1-c:2′,1′-l][1]oxa[4,7,10,13]tetraazacyclohexadecin-12-yl)-2-(3-(p-tolyl)ureido)propanamide] ({NH(4-Me-phenyl)-CO}-[Phe(3,5-F2)]S[Hyp][Morpholine(3S-CO)]A[Pro(4R-Me)]; ester 2-C)",,,2.5 µM,,,> 100 µM,10 µM,2.5 µM,0.156 µM
"C[C@@H]1C[C@H]2C(=O)O[C@@H](C)[C@H](NC(=O)[C@H](Cc3cc(F)cc(F)c3)NC(=O)Nc3ccc4c(c3)CCN4C)C(=O)N3C[C@H](O)C[C@H]3C(=O)N3CCOC[C@H]3C(=O)N[C@@H](C)C(=O)N2C1 [Compound 315, (S)-3-(3,5-difluorophenyl)-N-((6aS,8R,12S,13S,15aS,17R,21S,23aS)-8-hydroxy-13,17,21-trimethyl-6,11,15,20,23-pentaoxooctadecahydro-6H,11H,15H-[1,4]oxazino[3,4-i]dipyrrolo[2,1-c:2′,1′-l][1]oxa[4,7,10,13]tetraazacyclohexadecin-12-yl)-2-(3-(1-methylindolin-5-yl)ureido)propanamide] ({NH(1-Me-indolin-5-yl)-CO}-[Phe(3,5-F2)][aThr][Hyp][Morpholine(3S-CO)]A[Pro(4R-Me)]; ester 2-C)",,,5 µM,,,> 100 µM,20 µM,5 µM,0.625 µM
"C[C@@H]1C[C@H]2C(=O)O[C@@H](C)[C@H](NC(=O)[C@H](Cc3cc(F)cc(F)c3)NC(=O)Nc3ccc(F)c(C#N)c3)C(=O)N3CCC[C@H]3C(=O)N3CCCC[C@H]3C(=O)N[C@@H](C)C(=O)N2C1 [Compound 324, (S)-2-(3-(3-cyano-4-fluorophenyl)ureido)-3-(3,5-difluorophenyl)-N-((2R,6S,8aS,14aS,20S,21S,23aS)-2,6,21-trimethyl-5,8,14,19,23-pentaoxooctadecahydro-1H,5H,14H,19H-pyrido[2,1-i]dipyrrolo[2,1-c:2′,1′-l][1]oxa[4,7,10,13]tetraazacyclo-hexadecin-20-yl)propanamide] ({X1-CO}-[Phe(3,5-F2)][aThr]P[Pip]A[Pro(4R-Me)]; ester 2-C)",10.2 ± 0.5 µM,0.625 µM,0.313 µM,0.313 µM,1.25 µM,,,,
"C[C@@H]1C[C@H]2C(=O)O[C@@H](C)[C@H](NC(=O)[C@H](Cc3cc(F)cc(F)c3)NC(=O)Nc3ccc(F)c(C#N)c3)C(=O)N3C[C@H](O)C[C@H]3C(=O)N3CCOC[C@H]3C(=O)N[C@@H](C)C(=O)N2C1 [Compound 326, (S)-2-(3-(3-cyano-4-fluorophenyl)ureido)-3-(3,5-difluorophenyl)-N-((6aS,8R,12S,13S,15aS,17R,21S,23aS)-8-hydroxy-13,17,21-trimethyl-6,11,15,20,23-pentaoxooctadecahydro-6H,11H,15H-[1,4]oxazino[3,4-i]dipyrrolo[2,1-c:2′,1′-l][1]oxa[4,7,10,13]tetraazacyclo-hexadecin-12-yl)propanamide] ({X1-CO}-[Phe(3,5-F2)][aThr][Hyp][Morpholine(3S-CO)]A[Pro(4R-Me)]; ester 2-C)",> 100 µM,20 µM,10 µM,2.5 µM,1.25 µM,,,,
"C[C@@H]1NC(=O)[C@H](C)N(C)C(=O)[C@@H]2CCCN2C(=O)[C@@H](NC(=O)[C@H](Cc2ccccc2)NC(=O)Nc2ccc(OC(F)(F)F)cc2)COC(=O)C2CCCN2C1=O (stereo partly drawn) [Compound 213, (2S)-3-phenyl-2-(3-(4-(trifluoromethoxy)phenyl)ureido)-N-((6S,9S,11aS,17S)-6,9,10-trimethyl-5,8,11,16,20-pentaoxohexadecahydro-1H,5H,16H-dipyrrolo[2,1-c:2′,1′-l][1]oxa[4,7,10,13]tetraazacyclohexadecin-17-yl)propanamide] ({NH(4-OCF3-phenyl)-CO}-FSP[NMeA]A[ξP]; ester 2-C)",51.8 ± 1 µM,< 0.2 µM,3.12 µM,0.78 µM,0.39 µM,,,,
"C[C@@H]1C[C@H]2C(=O)O[C@@H](C)[C@H](NC(=O)[C@H](Cc3cc(F)cc(F)c3)NC(=O)Nc3ccc(Cl)cc3F)C(=O)N3CCC[C@H]3C(=O)N3CCOC[C@H]3C(=O)N[C@@H](C)C(=O)N2C1 [Compound 314, (S)-2-(3-(4-chloro-2-fluorophenyl)ureido)-3-(3,5-difluorophenyl)-N-((6aS,12S,13S,15aS,17R,21S,23aS)-13,17,21-trimethyl-6,11,15,20,23-pentaoxooctadecahydro-6H,11H,15H-[1,4]oxazino[3,4-i]dipyrrolo[2,1-c:2′,1′-l][1]oxa[4,7,10,13]tetraazacyclo-hexadecin-12-yl)propanamide] ({NH(4-Cl-2-F-phenyl)-CO}-[Phe(3,5-F2)][aThr]P[Morpholine(3S-CO)]A[Pro(4R-Me)]; ester 2-C)",2.39 ± 0.8 µM,< 0.02 µM,< 0.02 µM,< 0.02 µM,< 0.02 µM,,,,
"CCCC/C=C/C(=O)N[C@@H](Cc1cc(F)cc(F)c1)C(=O)N[C@@H]1C(=O)N2C[C@H](O)C[C@H]2C(=O)N2CCOC[C@H]2C(=O)N[C@@H](C)C(=O)N2C[C@H](C)C[C@H]2C(=O)O[C@H]1C [Compound 309, (E)-N—((S)-3-(3,5-difluorophenyl)-1-(((6aS,8R,12S,13S,15aS,17R,21S,23aS)-8-hydroxy-13,17,21-trimethyl-6,11,15,20,23-pentaoxooctadecahydro-6H,11H,15H-[1,4]oxazino[3,4-i]dipyrrolo[2,1-c:2′,1′-l][1]oxa[4,7,10,13]tetraazacyclohexadecin-12-yl)amino)-1-oxopropan-2-yl)hept-2-enamide] ({Heptenoyl(2E)}-[Phe(3,5-F2)][aThr][Hyp][Morpholine(3S-CO)]A[Pro(4R-Me)]; ester 2-C)",> 100 µM,0.156 µM,0.156 µM,0.156 µM,< 0.02 µM,,,,

# From patent US10457707B2, “Substituted urea depsipeptide analogs as activators of the CLPP endopeptidase” (priority 2015, dated 2019)
